Test results published in patent US20180099931A1 (AbbVie S.à.r.l., priority 2016, published 2018).
pEC50: −log10 of the molar value. Like-named read-outs stand apart in the source and are kept apart here.

Molecular target: T1, F508delCFTR (Homo sapiens, UniProt P13569, DEL508-508)
T1 construct: expressed in transfected cells; host or cells: CFBE41o- human lung-derived epithelial cells (CFBE4lo-F508delCFTR-HRP), doxycycline-inducible
Test: Cell Surface Expression-Horse Radish Peroxidase (CSE-HRP) Assay;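 as to Maximum % activity (with co-corrector): co-corrector and positive control are both the same reference corrector at 2 µM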;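 as to Maximum % activity (without co-corrector): percent of the 2 µM on-plate positive control corrector response above DMSO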
Type: cell-based
Settings: for Emax / Maximum % activity (with co-corrector): maximum at any tested concentration, normalized to on-plate positive control; for Emax: read-out: Maximum % activity (without co-corrector)

[1] = test compound without co-corrector
[2] = test compound without co-corrector, read-out: EC50 (without co-corrector)
[3] = with co-corrector (2 μM of 3-[(2R,4R)-4-({[1-(2,2-difluoro-1,3-benzodioxol-5-yl)cyclopropyl]carbonyl}amino)-7-methoxy-3,4-dihydro-2H-chromen-2-yl]benzoic acid)
[4] = with co-corrector (2 μM of 3-[(2R,4R)-4-({[1-(2,2-difluoro-1,3-benzodioxol-5-yl)cyclopropyl]carbonyl}amino)-7-methoxy-3,4-dihydro-2H-chromen-2-yl]benzoic acid), read-out: EC50 (with co-corrector)
[5] = CSE-HRP, test compound without co-corrector, read-out: EC50 (without co-corrector)
[6] = CSE-HRP, with co-corrector (2 μM of 3-[(2R,4R)-4-({[1-(2,2-difluoro-1,3-benzodioxol-5-yl)cyclopropyl]carbonyl}amino)-7-methoxy-3,4-dihydro-2H-chromen-2-yl]benzoic acid), read-out: EC50 (with co-corrector)
[7] = CSE-HRP, with co-corrector (2 μM)

T1 sequence (P13569 with tags, fused parts or gaps DEL508-508): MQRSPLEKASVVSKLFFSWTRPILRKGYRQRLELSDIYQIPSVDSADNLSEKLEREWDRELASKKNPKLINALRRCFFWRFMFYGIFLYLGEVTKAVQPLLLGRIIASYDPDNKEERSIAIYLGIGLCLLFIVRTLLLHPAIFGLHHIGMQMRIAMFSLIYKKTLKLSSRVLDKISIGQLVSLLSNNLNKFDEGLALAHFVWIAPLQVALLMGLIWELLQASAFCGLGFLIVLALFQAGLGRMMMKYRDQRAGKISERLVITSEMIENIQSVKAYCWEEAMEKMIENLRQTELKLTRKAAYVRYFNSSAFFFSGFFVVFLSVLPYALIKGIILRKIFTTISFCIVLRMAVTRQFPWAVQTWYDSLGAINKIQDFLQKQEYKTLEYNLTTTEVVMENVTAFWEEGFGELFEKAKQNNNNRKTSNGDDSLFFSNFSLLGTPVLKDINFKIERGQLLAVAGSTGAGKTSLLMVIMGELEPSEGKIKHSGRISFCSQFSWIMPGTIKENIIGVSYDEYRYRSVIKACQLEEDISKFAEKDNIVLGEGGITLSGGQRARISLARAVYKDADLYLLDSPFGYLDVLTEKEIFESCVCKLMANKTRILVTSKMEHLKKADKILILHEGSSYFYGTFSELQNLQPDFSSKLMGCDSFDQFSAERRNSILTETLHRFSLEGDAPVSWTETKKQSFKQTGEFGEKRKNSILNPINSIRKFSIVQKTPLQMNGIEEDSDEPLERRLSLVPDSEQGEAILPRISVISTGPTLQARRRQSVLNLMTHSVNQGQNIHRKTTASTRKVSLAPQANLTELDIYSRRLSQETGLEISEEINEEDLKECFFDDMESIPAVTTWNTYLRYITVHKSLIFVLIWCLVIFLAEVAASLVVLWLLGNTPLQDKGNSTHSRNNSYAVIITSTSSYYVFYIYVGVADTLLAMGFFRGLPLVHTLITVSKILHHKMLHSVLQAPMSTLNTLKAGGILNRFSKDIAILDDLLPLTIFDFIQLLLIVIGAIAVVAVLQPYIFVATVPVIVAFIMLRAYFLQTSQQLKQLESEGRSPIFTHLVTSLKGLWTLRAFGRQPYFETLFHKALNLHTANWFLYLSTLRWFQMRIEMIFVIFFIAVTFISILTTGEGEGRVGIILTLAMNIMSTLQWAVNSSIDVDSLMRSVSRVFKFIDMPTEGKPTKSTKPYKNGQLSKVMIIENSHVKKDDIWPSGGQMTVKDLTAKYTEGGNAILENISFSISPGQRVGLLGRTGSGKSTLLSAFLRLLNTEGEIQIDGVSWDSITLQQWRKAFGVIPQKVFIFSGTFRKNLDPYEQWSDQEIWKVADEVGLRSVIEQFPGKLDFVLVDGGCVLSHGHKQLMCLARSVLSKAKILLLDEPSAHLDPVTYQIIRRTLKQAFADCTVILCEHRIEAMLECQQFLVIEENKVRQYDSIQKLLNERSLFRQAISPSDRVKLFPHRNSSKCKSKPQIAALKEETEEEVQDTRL

Row | Structure (SMILES) | Emax [1] | pEC50 [2] | Maximum % activity (with co-corrector) [3] | pEC50 [4] | Maximum % activity (with co-corrector) (with co-corrector (2 μM)) | Emax (without co-corrector) | pEC50 [5] | pEC50 [6] | Maximum % activity (with co-corrector) [7] | Emax (CSE-HRP, without co-corrector)
1 | COc1cc2c(cc1CN[C@H]1[C@H](C(C)(C)C)[C@@H](C(=O)O)N(C(=O)OC(C)C)[C@H]1c1cccnc1OC(C)C)CCC2 [II-574] | > 200% | 5.00 to 6.00 | +++ (≥350) | 5.00 to 6.00 | – | – | – | – | – | –
2 | COc1nc(C(C)(C)C)ccc1CN[C@H]1[C@H](C(C)(C)C)[C@@H](C(=O)O)N(C(=O)C2CCCCC2)[C@H]1c1ccccc1C(C)C [Example I-187] | – | > 6.00 | – | > 6.00 | +++ (≥350) | > 200% | – | – | – | –
3 | CCc1cc2ccc(Cl)cc2nc1N[C@H]1[C@H](C(C)(C)C)[C@@H](C(=O)O)N(C(=O)C2CCCCC2)[C@H]1c1ccccc1 [III-149] | 100 to 200% | 5.00 to 6.00 | – | 5.00 to 6.00 | +++ (≥350) | – | – | – | – | –
4 | COc1cc(C(F)(F)F)ccc1CN[C@H]1[C@H](C(C)(C)C)[C@@H](C(=O)O)N(C(=O)C2CCCCC2)[C@H]1c1cccnc1OC [Example I-39] | – | 5.00 to 6.00 | – | > 6.00 | +++ (≥350) | 100 to 200% | – | – | – | –
5 | COc1ccc(C(C)(C)C)cc1CN[C@H]1[C@H](C(C)(C)C)[C@@H](C(=O)O)N(C(=O)C2CCC2)[C@H]1c1ccccc1C(F)(F)F [Example I-277] | – | – | – | – | – | – | 5.00 to 6.00 | 5.00 to 6.00 | +++ (≥350) | 100 to 200%
6 | COc1cc(C(F)(F)F)ccc1CN[C@@H]1[C@@H](C(C)(C)C)[C@H](C(=O)O)N(C(=O)C2CCC(F)(F)CC2)[C@@H]1c1ccccc1 (racemic) [II-69] | – | – | – | – | – | – | 5.00 to 6.00 | 5.00 to 6.00 | ++ (≥150 and <350) | < 100%
7 | COc1cc(C(F)(F)F)ccc1CN[C@@H]1[C@@H](C(C)(C)C)[C@H](C(=O)O)N(C(=O)C2CCCCC2)[C@@H]1c1ccccc1 (racemic) [III-35] | 100 to 200% | 5.00 to 6.00 | +++ (≥350) | > 6.00 | – | – | – | – | – | –
8 | COc1ccc(C(C)(C)C)cc1CN[C@H]1[C@H](C(C)(C)C)[C@@H](C(=O)O)N(C(=O)c2ccc(Oc3ccccn3)cc2)[C@H]1c1ccccc1 [II-224] | – | – | – | – | – | – | 5.00 to 6.00 | > 6.00 | +++ (≥350) | > 200%
9 | CC(C)(C)[C@H]1[C@H](Nc2cc3ccccc3cn2)[C@H](c2ccccc2)N(C(=O)C2CCCCC2)[C@@H]1C(=O)O [III-156] | < 100% | > 6.00 | – | 5.00 to 6.00 | ++ (≥150 and <350) | – | – | – | – | –
10 | COc1ccc(C(C)(C)C)cc1CN[C@H]1[C@H](C(C)(C)C)[C@@H](C(=O)O)N(C(=O)c2cccnc2C)[C@H]1c1ccccc1 [II-198] | – | – | – | – | – | – | 5.00 to 6.00 | 5.00 to 6.00 | ++ (≥150 and <350) | < 100%
11 | CC(C)(C)[C@H]1[C@H](NCc2ccc3c(c2)OCCO3)[C@H](c2ccccc2)N(C(=O)C2CCCCC2)[C@@H]1C(=O)O [Example I-47] | – | < 5.00 | – | 5.00 to 6.00 | ++ (≥150 and <350) | < 100% | – | – | – | –
12 | CC(C)(C)[C@@H]1[C@@H](NCc2cc(C(F)(F)F)ccc2OCCOC(F)(F)F)[C@@H](c2ccccc2)N(C(=O)C2CCCCC2)[C@H]1C(=O)O (racemic) [III-86] | < 100% | < 5.00 | ++ (≥150 and <350) | 5.00 to 6.00 | – | – | – | – | – | –
13 | CC(C)(C)[C@H]1[C@H](NCc2ccc(C#N)cc2F)[C@H](c2ccccc2)N(C(=O)C2CCCCC2)[C@@H]1C(=O)O [III-121] | < 100% | < 5.00 | – | 5.00 to 6.00 | ++ (≥150 and <350) | – | – | – | – | –
14 | COc1nnc(C2CCC2)cc1CN[C@H]1[C@H](C(C)(C)C)[C@@H](C(=O)O)N(C(=O)C2CCCCC2)[C@H]1c1ccccc1 [II-496] | < 100% | 5.00 to 6.00 | ++ (≥150 and <350) | 5.00 to 6.00 | – | – | – | – | – | –
15 | COc1ccc(C(F)(F)F)cc1CN[C@@H]1[C@@H](C(C)(C)C)[C@@H](C(=O)O)N(C(=O)[C@H](OC)c2ccccc2)[C@H]1c1ccccc1 [II-395] | < 100% | 5.00 to 6.00 | ++ (≥150 and <350) | 5.00 to 6.00 | – | – | – | – | – | –
16 | CCS(=O)(=O)NC(=O)[C@H]1[C@H](C(C)(C)C)[C@@H](Nc2cc(C(F)(F)F)cc(C)n2)[C@@H](c2ccccc2)N1C(=O)C1CCCCC1 (racemic) [III-53] | < 100% | < 5.00 | ++ (≥150 and <350) | 5.00 to 6.00 | – | – | – | – | – | –
17 | COc1ccc(C(F)(F)F)cc1CN[C@H]1[C@H](C(C)(C)C)[C@@H](C(=O)O)N(C(=O)[C@@H]2CCCCO2)[C@H]1c1ccccc1Br [Example I-290] | – | – | – | – | – | – | 5.00 to 6.00 | 5.00 to 6.00 | +++ (≥350) | > 200%
18 | COc1ccc(C(C)(C)C)cc1CN[C@H]1[C@H](C(C)(C)C)[C@@H](C(=O)O)N(C(=O)C2Cc3ccccc3CO2)[C@H]1c1ccccc1 (stereo partly shown) [II-300] | – | – | – | – | – | – | > 6.00 | > 6.00 | +++ (≥350) | > 200%
19 | COC(=O)N1CCC[C@@H](C(=O)N2[C@H](c3ccccc3)[C@H](Nc3cc(C(F)(F)F)cc(C)n3)[C@@H](C(C)(C)C)[C@@H]2C(=O)O)C1 (racemic) [Example I-27] | – | 5.00 to 6.00 | – | 5.00 to 6.00 | +++ (≥350) | > 200% | – | – | – | –
20 | COc1ncc(C(C)(C)C)cc1CN[C@H]1[C@H](C(C)(C)C)[C@@H](C(=O)O)N(C(=O)Cc2c(F)cccc2F)[C@H]1c1ccccc1 [II-301] | – | – | – | – | – | – | 5.00 to 6.00 | > 6.00 | +++ (≥350) | > 200%

More lines, now with the values ahead:

Row | Emax [1] | pEC50 [2] | Maximum % activity (with co-corrector) [3] | pEC50 [4] | Maximum % activity (with co-corrector) (with co-corrector (2 μM)) | Emax (without co-corrector) | pEC50 [5] | pEC50 [6] | Maximum % activity (with co-corrector) [7] | Emax (CSE-HRP, without co-corrector) | Structure (SMILES)
21 | > 200% | 5.00 to 6.00 | +++ (≥350) | 5.00 to 6.00 | – | – | – | – | – | – | COc1ccc(C2(C)CCC2)cc1CN[C@H]1[C@H](C(C)(C)C)[C@@H](C(=O)O)N(C(=O)[C@H]2CCCCO2)[C@H]1c1cccnc1N(C)C [II-493]
22 | – | – | – | – | – | – | 5.00 to 6.00 | 5.00 to 6.00 | ++ (≥150 and <350) | < 100% | COC(=O)[C@H](C)Cc1cnc(OC)c(CN[C@H]2[C@H](C(C)(C)C)[C@@H](C(=O)O)N(C(=O)C3CCCCC3)[C@H]2c2ccccc2)c1 [II-159]
23 | – | – | – | – | – | – | 5.00 to 6.00 | 5.00 to 6.00 | ++ (≥150 and <350) | < 100% | COc1ncc(C(F)(F)F)cc1CN[C@H]1[C@H](C(C)(C)C)[C@@H](C(=O)O)N(C(=O)C2CCC2)[C@H]1c1ccccc1C(F)(F)F [Example I-280]
24 | – | – | – | – | – | – | 5.00 to 6.00 | 5.00 to 6.00 | +++ (≥350) | > 200% | COc1ncc(C(F)(F)F)cc1CN[C@H]1[C@H](C(C)(C)C)[C@@H](C(=O)O)N(C(=O)C2CC2)[C@H]1c1ccccc1C(C)C [Example I-271]
25 | – | 5.00 to 6.00 | – | 5.00 to 6.00 | +++ (≥350) | 100 to 200% | – | – | – | – | COc1ccc(Cl)cc1CN[C@H]1[C@H](C(C)(C)C)[C@@H](C(=O)O)N(C(=O)C2CCCCC2)[C@H]1c1ccccc1OC [Example I-57]
26 | 100 to 200% | 5.00 to 6.00 | +++ (≥350) | 5.00 to 6.00 | – | – | – | – | – | – | COc1ccc(C(C)(C)C)cc1CN[C@H]1[C@H](C(C)(C)C)[C@@H](C(=O)O)N(C(=O)[C@@H]2CCC[C@H](O)C2)[C@H]1c1ccccc1 [II-515]
27 | – | – | – | – | – | – | 5.00 to 6.00 | 5.00 to 6.00 | +++ (≥350) | 100 to 200% | COc1cc(C(F)(F)F)ccc1CN[C@H]1[C@H](C(C)(C)C)[C@@H](C(=O)O)N(C(=O)C2CCCCO2)[C@H]1c1cccnc1OC (relative stereo) [II-98]
28 | – | 5.00 to 6.00 | – | > 6.00 | +++ (≥350) | > 200% | – | – | – | – | COc1ccc(C(C)(C)C)cc1CN[C@H]1[C@H](C(C)(C)C)[C@@H](C(=O)O)N(C(=O)[C@@H]2CCCCO2)[C@H]1c1ccccc1Br [Example 113, (2S,3S,4S,5S)-5-(2-bromophenyl)-3-tert-butyl-4-{[(5-tert-butyl-2-methoxyphenyl)methyl]amino}-1-[(2S)-oxane-2-carbonyl]pyrrolidine-2-carboxylic acid]
29 | – | – | – | – | – | – | 5.00 to 6.00 | 5.00 to 6.00 | +++ (≥350) | 100 to 200% | COc1cc(Cl)ccc1CN[C@H]1[C@H](C(C)(C)C)[C@@H](C(=O)O)N(C(=O)C2CCCCC2)[C@H]1c1cccnc1C [II-96]
30 | > 200% | > 6.00 | – | > 6.00 | +++ (≥350) | – | – | – | – | – | CCC(C)c1ccc(OC)c(CN[C@H]2[C@H](C(C)(C)C)[C@@H](C(=O)O)N(C(=O)C3CCCCC3)[C@H]2c2ccccc2)c1 (stereo partly shown) [III-168]
31 | – | – | – | – | – | – | 5.00 to 6.00 | 5.00 to 6.00 | +++ (≥350) | 100 to 200% | COc1cc(F)c(F)cc1CN[C@H]1[C@H](C(C)(C)C)[C@@H](C(=O)O)N(C(=O)C2CCCCC2)[C@H]1c1ccccc1 [II-128]
